Assay results published in patent US12503455B2, “Nucleic acid-binding photoprobes and uses thereof” (Arrakis Therapeutics, Inc., priority 2017, dated 2025).

Legend:
Assay type in all cases: binding
Aptamer 21 [1] = assay: Capture of Aptamer 21 with click-biotinylated probes; conditions: Aptamer 21 or Aptamer 21-E
Experimental: A 50 μL sample of 1 μM folded Aptamer 21 or Aptamer 21-E solution in folding buffer (20 mM TrisHCl pH 8, 100 mM KCl, 3 mM MgCl2) was added to a 0.5 μL aliquot of 0.5 mM ARK-729, ARK-2058, ARK-816, or ARK-2059 in DMSO or a DMSO-only control. The solution was incubated at 37° C. for 1 h and then irradiated with long wave UV light (˜365 nm) for 30 min in a UV crosslinker (Fisher Scientific). To this solution was added 0.5 μL of 10 mM DBCO-biotin (Click Chemistry Tools, cat. #A105) and 2 μL of 0.5 M EDTA pH 8 and then the solution was incubated at 65° C. for 2 h. The RNA was ethanol precipitated by adding 35 μL of water, 2 uL of 5 mg/mL glycogen, 10 μL 3 M NaOAc pH 5, and 250 μL ethanol, incubating at −80° C. for 1 h, centrifuging at 20000×g for 30 min, washing the pellet twice with 500 μL of 70% ethanol, and then air drying the pellet.
The RNA pellet was redissolved in 50 μL of 1× bind/wash buffer (20 mM TrisHCl pH 7, 100 mM KCl, 0.1% Tween-20). A 50 μL aliquot of MyOne Streptavidin C1 Dynabead slurry (Thermo) was captured on a magnet, washed twice with 50 μL of 1× bind/wash buffer, and then resuspended in 50 μL of the crosslinked RNA sample. The bead suspension was rotated at room temperature for 30 min and then washed twice with 100 μL of 1× bind/wash solution. […]

[2] = tested on: Aptamer 21 spiked into polyA+ RNA extract; assay: Capture of Aptamer 21 from PolyA+ RNA extract; conditions: versus warhead-only control ARK-2059
Experimental: Total RNA was extracted from a pellet of 5×10^6 HepG2 cells using the ReliaPrep mini-prep kit (Promega) according to the manufacturer's standard protocol. The polyA+ RNA fraction was isolated from 50 μL sample of total RNA at 454 ng/μL using the magnetic mRNA isolation kit (New England Biolabs, cat #S1550) according to the manufacturer's standard protocol using 450 μL of lysis buffer and 100 μL of beads.
A sample of folded aptamer 21 RNA was spiked into a sample of polyA+ RNA extract at a final concentration of 1 nM aptamer 21 and 3 ng/μL polyA+ RNA. […]
Sequencing was performed on a single Illumina HiSeq 4000 lane with 150 bp paired-end reads using the standard manufacturer protocol.
Stitched reads were then processed with Cutadapt (http://dx.doi.org/10.14806/ej.17.1.200) with at least 5-nts of overlap and a maximum of 20% mismatches to simultaneously 1) define a unique 6-nt unique molecular identifier (UMI) in the correct adapter context (ATATAGGN6AGATCGG) (SEQ. […] UMIs were appended to read names, and reads were mapped the against the genome and transcriptome references (plus Aptamer 21) using the STAR aligner (http://dx.doi.org/10.1093/bioinformatics/bts635) with at most 10% mismatches. Groups of reads with identical or near-identical UMIs were then collapsed using the Directional Adjacency methods of UMI-tools (http://dx.doi.org/10.1101/gr.209601.116) with default parameters. […]

Aptamer 21 [3] = assay: Reverse transcriptase pausing (drop-off) gel assay of photo-crosslinking to Aptamer 21; conditions: 1 uM RNA, 10 uM probe (9 uM PreQ1 probe), UV ~360 nm
Experimental: (§1) A solution of RNA at 2 to 5 μM in nuclease-free water was heated to 95° C. for 3 min and then cooled on ice for 2 min. This solution was diluted with ½ volume of 3×RNA folding buffer (60 mM TrisHCl pH 8, 300 mM KCl, 9 mM MgCl2) and incubated at 37° C. for 20 min. Folding was carried out immediately before use of the RNA in each experiment. In cases where a mixture of RNA molecules was used in vitro the RNAs were folded separately and then combined prior to the probing experiment.
Folded RNA (1 μM) was incubated with the photoaffinity probe (10 μM) in total 25 μL of buffer (20 mM TrisHCl pH 8, 100 mM KCl, 3 mM MgCl2) with 2.5% DMSO for 30 min at 37° C. to allow binding to come to equilibrium. The sample was then irradiated with long wave UV light (˜365 nm) for 30 min in a UV crosslinker (Fisher Scientific).
(§2) A 3.75 μL aliquot of 10 μM reverse transcription primer was added to the cross-linked RNA sample, which was then incubated for 5 min at 65° C. and then cooled on ice. The sample was then diluted to a final volume of 60 μL and final buffer concentration of 1× Protoscript-II buffer (New England Biolabs), 0.5 mM dNTPs, 10 mM DTT, 0.4 U/μL RNase Inhibitor (New England Biolabs), and 10 U/μL Protoscript-II (New England Biolabs). The reaction was incubated at 45° C. for 2 h, 65° C. for 20 min, and then 4° C.
The RNA was hydrolyzed by the addition of 4.8 μL of 2.5 M NaOH and heating at 95° C. for 5 min. The reaction was quenched by the addition of 0.9 μL of acetic acid. The cDNA was precipitated by the addition of 6.6 μL of 3 M sodium acetate pH 5 and 181 μL ethanol, cooling to −80° C. for 1 h, and then centrifuging at 20,500×g at 4° C. for 30 min. The cDNA pellet was washed twice with 500 μL of 70% ethanol and then air dried for 5 min.
The cDNA pellet was resuspended in 12 μL of 1×TBE-urea sample loading buffer (Bio-Rad) and heated to 95° C. for 5 min. The sample was then run on a pre-cast 8.6×6.7 cm TBE-urea 10% PAGE gel (Bio-Rad) at 120 V until the lower bromophenol blue dye reached the bottom of the gel. The gel was stained with 1×SYBR-gold (Invitrogen) in 1×TBE buffer at room temperature for 20 min covered from light. The gel fluorescence was imaged on an Azure c600 instrument.

PreQ1 RNA = assay: Reverse transcriptase pausing gel assay of photo-crosslinking to PreQ1 RNA; conditions: 1 uM RNA, 9 uM PreQ1 probe, UV ~360 nm
Experimental: as §1
[…] The sample was then irradiated with long wave UV light (˜365 nm) for 30 min in a UV crosslinker (Fisher Scientific).
as §2
The RNA was hydrolyzed by the addition of 4.8 μL of 2.5 M NaOH and heating at 95° C. for 5 min. […]
The cDNA pellet was resuspended in 12 μL of 1×TBE-urea sample loading buffer (Bio-Rad) and heated to 95° C. for 5 min. […] The gel fluorescence was imaged on an Azure c600 instrument.

Structure (SMILES)	RT pausing peaks after click-biotinylation and avidin bead enrichment (Aptamer 21 [1])	enrichment analysis of Aptamer 21 from PolyA+ RNA extract ([2]; avidin capture, next-generation sequencing)	RT pausing ratio peaks on Aptamer 21 spiked into PolyA+ RNA extract ([2]; extract from HepG2 cells)	cross-linking with Apt21 RNA (RT pausing) (Aptamer 21 [3])	cross-linking to PreQ1 RNA (RT pausing) (PreQ1 RNA)
COC(=O)C1=C(COCc2cn(CCOCCOCCC(=O)NCCC3(CCN=[N+]=[N-])N=N3)nn2)NC(c2ccncc2)=NC1c1ccc(F)cc1Cl (centres unmarked) [ARK-816]	RT pausing peaks specific to Aptamer 21	Enrichment of the sites of probe-specific RT pausing on Aptamer 21 was observed	observed at the same positions as for isolated Aptamer 21	–	–
CC1(CCC(=O)NCCOCCOCCNCc2c[nH]c3nc(N)[nH]c(=O)c23)N=N1 [I-23]	–	–	–	does not show cross-linking	does not show cross-linking
